Reference: ChEMBL document CHEMBL1201861, “Genomics of Drug Sensitity in Cancer screening data, Wellcome Trust Sanger Institute”

Tests used:
Assay in all cases: cells
JAR = type: functional, cell-based, Homo sapiens; conditions: Homo sapiens, JAR;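 note: growth inhibition of human JAR cells determined with a cell viability assay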
Description: SANGER: Inhibition of human JAR cell growth in a cell viability assay.

RPMI-7951 = type: functional, cell-based, Homo sapiens; conditions: Homo sapiens, RPMI-7951
Description: SANGER: Inhibition of human RPMI-7951 cell growth in a cell viability assay.

A 172 = type: functional, cell-based, Homo sapiens; conditions: Homo sapiens, A 172;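 note: growth inhibition of A172 cells, measured with a cell viability readout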
Description: SANGER: Inhibition of human A172 cell growth in a cell viability assay.

Detroit 562 = type: functional, cell-based, Homo sapiens; conditions: Homo sapiens, Detroit 562;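 note: growth inhibition of human Detroit 562 cells, read out by a cell viability assay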
Description: SANGER: Inhibition of human Detroit562 cell growth in a cell viability assay.

CAS-1 = type: functional, cell-based, Homo sapiens; conditions: Homo sapiens, CAS-1;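 note: growth inhibition of CAS-1 cells, measured with a cell viability assay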
Description: SANGER: Inhibition of human CAS-1 cell growth in a cell viability assay.

KG-1 = type: functional, cell-based; conditions: Homo sapiens;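 note: growth inhibition of KG-1 cells, read out by a cell viability assay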
Description: SANGER: Inhibition of human KG-1 cell growth in a cell viability assay.

PC-14 = type: functional, cell-based, Homo sapiens; conditions: Homo sapiens, PC-14;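 note: cell viability assay measuring inhibition of PC-14 cell growth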
Description: SANGER: Inhibition of human PC-14 cell growth in a cell viability assay.

KS-1 = type: functional, cell-based, Homo sapiens; conditions: Homo sapiens, KS-1;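 note: growth inhibition of KS-1 cells, read out with a cell viability assay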
Description: SANGER: Inhibition of human KS-1 cell growth in a cell viability assay.

SW780 = type: functional, cell-based, Homo sapiens; conditions: Homo sapiens, SW780;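 note: growth inhibition of the cells, read out with a cell viability assay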
Description: SANGER: Inhibition of human SW780 cell growth in a cell viability assay.

BHT-101 = type: functional, cell-based, Homo sapiens; conditions: Homo sapiens, BHT-101
Description: SANGER: Inhibition of human BHT-101 cell growth in a cell viability assay.

TE-10 = type: functional, cell-based, Homo sapiens; conditions: Homo sapiens, TE-10;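 note: growth inhibition of TE-10 cells, measured by a cell viability assay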
Description: SANGER: Inhibition of human TE-10 cell growth in a cell viability assay.

SAS = type: functional, cell-based, Homo sapiens; conditions: Homo sapiens, SAS;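 note: growth inhibition of SAS cells, read out with a cell viability assay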
Description: SANGER: Inhibition of human SAS cell growth in a cell viability assay.

COLO-678 = type: functional, cell-based, Homo sapiens; conditions: Homo sapiens, COLO-678
Description: SANGER: Inhibition of human COLO-678 cell growth in a cell viability assay.

Capan-2 = type: functional, cell-based, Homo sapiens; conditions: Homo sapiens, Capan-2;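 note: Capan-2 cell growth inhibition, read out with a viability assay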
Description: SANGER: Inhibition of human Capan-2 cell growth in a cell viability assay.

MDA-MB-453 = type: functional, cell-based, Homo sapiens; conditions: Homo sapiens, MDA-MB-453
Description: SANGER: Inhibition of human MDA-MB-453 cell growth in a cell viability assay.

MKN-28 = type: functional, cell-based, Homo sapiens; conditions: Homo sapiens, MKN-28;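 note: cell viability assay read-out, IC50 reflects suppression of growth of human MKN-28 cells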
Description: SANGER: Inhibition of human MKN28 cell growth in a cell viability assay.

VMRC-RCZ = type: functional, cell-based; conditions: Homo sapiens;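 note: growth inhibition measured with a cell viability assay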
Description: SANGER: Inhibition of human VMRC-RCZ cell growth in a cell viability assay.

RXF 393 = type: functional, cell-based; conditions: Homo sapiens;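 note: growth inhibition of human RXF 393 cells, read out with a cell viability assay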
Description: SANGER: Inhibition of human RXF393 cell growth in a cell viability assay.

MZ7-mel = type: functional, cell-based, Homo sapiens; conditions: Homo sapiens, MZ7-mel;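 note: growth inhibition of human MZ7-mel cells, measured by a cell viability assay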
Description: SANGER: Inhibition of human MZ7-mel cell growth in a cell viability assay.

ES5 = type: functional, cell-based, Homo sapiens; conditions: Homo sapiens, ES5;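 note: growth inhibition of human ES5 cells, read out by a cell viability assay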
Description: SANGER: Inhibition of human ES5 cell growth in a cell viability assay.

SCC-25 = type: functional, cell-based, Homo sapiens; conditions: Homo sapiens, SCC-25;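 note: growth inhibition of SCC-25 cells, measured with a cell viability assay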
Description: SANGER: Inhibition of human SCC-25 cell growth in a cell viability assay.

KE-37 = type: functional, cell-based; conditions: Homo sapiens;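 note: growth inhibition of KE-37 cells, read out with a cell viability assay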
Description: SANGER: Inhibition of human KE-37 cell growth in a cell viability assay.

RKO = type: functional, cell-based, Homo sapiens; conditions: Homo sapiens, RKO;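 note: growth inhibition of human RKO cells, read out with a cell viability assay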
Description: SANGER: Inhibition of human RKO cell growth in a cell viability assay.

P12-Ichikawa = type: functional, cell-based; conditions: Homo sapiens
AM-38 = type: functional, cell-based, Homo sapiens; conditions: Homo sapiens, AM-38;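 note: growth inhibition of AM-38 cells of human origin, read out by a cell viability assay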
Description: SANGER: Inhibition of human AM-38 cell growth in a cell viability assay.

KGN = type: functional, cell-based, Homo sapiens; conditions: Homo sapiens, KGN;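 note: growth inhibition of KGN cells, read out with a cell viability assay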
Description: SANGER: Inhibition of human KGN cell growth in a cell viability assay.

NCI-H23 = type: functional, cell-based, Homo sapiens; conditions: Homo sapiens, NCI-H23;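 note: cell viability assay measuring growth inhibition of NCI-H23 cells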
Description: SANGER: Inhibition of human NCI-H23 cell growth in a cell viability assay.

ES3 = type: functional, cell-based, Homo sapiens; conditions: Homo sapiens, ES3;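 note: growth inhibition of ES3 cells, read out with a cell viability assay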
Description: SANGER: Inhibition of human ES3 cell growth in a cell viability assay.

T47D = type: functional, cell-based, Homo sapiens; conditions: Homo sapiens, T47D;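 note: growth inhibition of human T47D cells, measured with a cell viability assay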
Description: SANGER: Inhibition of human T47D cell growth in a cell viability assay.

CAL-85-1 = type: functional, cell-based; conditions: Homo sapiens;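 note: growth inhibition of human CAL-85-1 cells, read out with a cell viability assay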
Description: SANGER: Inhibition of human CAL-85-1 cell growth in a cell viability assay.

MDA-MB-361 = type: functional, cell-based, Homo sapiens; conditions: Homo sapiens, MDA-MB-361
LNCaP-Clone-FGC = type: functional, cell-based, Homo sapiens; conditions: Homo sapiens, LNCaP-Clone-FGC
Description: SANGER: Inhibition of human LNCaP-Clone-FGC cell growth in a cell viability assay.

SCC-9 = type: functional, cell-based, Homo sapiens; conditions: Homo sapiens, SCC-9;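 note: Read-out is a cell viability assay, with values giving inhibition of cell growth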
Description: SANGER: Inhibition of human SCC-9 cell growth in a cell viability assay.

LB771-HNC = type: functional, cell-based, Homo sapiens; conditions: Homo sapiens, LB771-HNC;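 note: growth inhibition of LB771-HNC human cells, read out with a cell viability assay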
Description: SANGER: Inhibition of human LB771-HNC cell growth in a cell viability assay.

NOMO-1 = type: functional, cell-based; conditions: Homo sapiens;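 note: growth inhibition of human NOMO-1 cells measured by a cell viability assay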
Description: SANGER: Inhibition of human NOMO-1 cell growth in a cell viability assay.

KOSC-2 = type: functional, cell-based, Homo sapiens; conditions: Homo sapiens, KOSC-2;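 note: growth inhibition of KOSC-2 cells, read out by a cell viability assay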
Description: SANGER: Inhibition of human KOSC-2 cell growth in a cell viability assay.

NCI-H747 = type: functional, cell-based; conditions: Homo sapiens;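 note: growth inhibition of human NCI-H747 cells, read out by a cell viability assay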
Description: SANGER: Inhibition of human NCI-H747 cell growth in a cell viability assay.

LS-123 = type: functional, cell-based, Homo sapiens; conditions: Homo sapiens, LS-123
Description: SANGER: Inhibition of human LS-123 cell growth in a cell viability assay.

SF-268 = type: functional, cell-based, Homo sapiens; conditions: Homo sapiens, SF-268;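 note: growth inhibition of SF-268 cells determined with a cell viability assay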
Description: SANGER: Inhibition of human SF268 cell growth in a cell viability assay.

K5 = type: functional, cell-based, Homo sapiens; conditions: Homo sapiens, K5
Description: SANGER: Inhibition of human K5 cell growth in a cell viability assay.

RT-112 = type: functional, cell-based, Homo sapiens; conditions: Homo sapiens, RT-112
Description: SANGER: Inhibition of human RT-112 cell growth in a cell viability assay.

NKM-1 = type: functional, cell-based; conditions: Homo sapiens;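 note: growth inhibition of NKM-1 cells, read out with a cell viability assay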
Description: SANGER: Inhibition of human NKM-1 cell growth in a cell viability assay.

GAK = type: functional, cell-based, Homo sapiens; conditions: Homo sapiens, GAK;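 note: cell growth inhibition read out by a cell viability assay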
Description: SANGER: Inhibition of human GAK cell growth in a cell viability assay.

KALS-1 = type: functional, cell-based, Homo sapiens; conditions: Homo sapiens, KALS-1;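 note: growth inhibition of KALS-1 cells, determined with a cell viability assay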
Description: SANGER: Inhibition of human KALS-1 cell growth in a cell viability assay.

ONS-76 = type: functional, cell-based, Homo sapiens; conditions: Homo sapiens, ONS-76;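 note: growth inhibition of human ONS-76 cells, read out with a cell viability assay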
Description: SANGER: Inhibition of human ONS-76 cell growth in a cell viability assay.

RH-1 = type: functional, cell-based, Homo sapiens; conditions: Homo sapiens, RH-1;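 note: growth inhibition of human RH-1 cells, read out with a cell viability assay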
Description: SANGER: Inhibition of human RH-1 cell growth in a cell viability assay.

BHY = type: functional, cell-based, Homo sapiens; conditions: Homo sapiens, BHY;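 note: cell growth inhibition read out by a viability assay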
Description: SANGER: Inhibition of human BHY cell growth in a cell viability assay.

MKN-45 = type: functional, cell-based, Homo sapiens; conditions: Homo sapiens, MKN-45;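 note: growth inhibition of human MKN-45 cells, measured with a cell viability assay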
Description: SANGER: Inhibition of human MKN45 cell growth in a cell viability assay.

NCI-H510A = type: functional, cell-based; conditions: Homo sapiens;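 note: growth inhibition of NCI-H510A cells, read out with a cell viability assay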
Description: SANGER: Inhibition of human NCI-H510A cell growth in a cell viability assay.

FTC-133 = type: functional, cell-based, Homo sapiens; conditions: Homo sapiens, FTC-133
KY821 = type: functional, cell-based; conditions: Homo sapiens;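 note: growth inhibition of human KY821 cells, read out by a cell viability assay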
Description: SANGER: Inhibition of human KY821 cell growth in a cell viability assay.

NCI-H2170 = type: functional, cell-based, Homo sapiens; conditions: Homo sapiens, NCI-H2170;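 note: cell viability assay measuring growth inhibition of human NCI-H2170 cancer cells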
Description: SANGER: Inhibition of human NCI-H2170 cell growth in a cell viability assay.

SMILES: CCC1=C[C@@H]2CN(C1)Cc1c([nH]c3ccccc13)[C@@](C(=O)OC)(c1cc3c(cc1OC)N(C)[C@H]1[C@@](O)(C(=O)OC)[C@H](OC(C)=O)[C@]4(CC)C=CCN5CC[C@]31[C@@H]54)C2 [VINORELBINE]
- IC50 (JAR): > 64 nM
- IC50 (RPMI-7951): 8.82 nM
- IC50 (A 172): 13.9 nM
- IC50 (Detroit 562): 7.55 nM
- IC50 (CAS-1): 40.1 nM
- IC50 (KG-1): > 64 nM
- IC50 (PC-14): 3.26 nM
- IC50 (KS-1): 1.47 nM
- IC50 (SW780): 14.9 nM
- IC50 (BHT-101): > 64 nM
- IC50 (TE-10): 3.62 nM
- IC50 (SAS): > 64 nM
- IC50 (COLO-678): > 64 nM
- IC50 (Capan-2): 30.4 nM
- IC50 (MDA-MB-453): > 64 nM
- IC50 (MKN-28): 4.77 nM
- IC50 (VMRC-RCZ): 18.8 nM
- IC50 (RXF 393): 5.06 nM
- IC50 (MZ7-mel): 10.2 nM
- IC50 (ES5): > 64 nM
- IC50 (SCC-25): 12.5 nM
- IC50 (KE-37): 4.42 nM
- IC50 (RKO): 1.52 nM
- IC50 (P12-Ichikawa): 25.2 nM
- IC50 (AM-38): 33.5 nM
- IC50 (KGN): 7.05 nM
- IC50 (NCI-H23): 60.1 nM
- IC50 (ES3): 28.1 nM
- IC50 (T47D): > 64 nM
- IC50 (CAL-85-1): 4.9 nM
- IC50 (MDA-MB-361): 9.76 nM
- IC50 (LNCaP-Clone-FGC): 17.9 nM
- IC50 (SCC-9): 2.05 nM
- IC50 (LB771-HNC): 8.59 nM
- IC50 (NOMO-1): 19 nM
- IC50 (KOSC-2): > 64 nM
- IC50 (NCI-H747): > 64 nM
- IC50 (LS-123): > 64 nM
- IC50 (SF-268): 16.3 nM
- IC50 (K5): 41.9 nM
- IC50 (RT-112): 3.37 nM
- IC50 (NKM-1): 4.97 nM
- IC50 (GAK): > 64 nM
- IC50 (KALS-1): 3.9 nM
- IC50 (ONS-76): 3.3 nM
- IC50 (RH-1): 11 nM
- IC50 (BHY): 9.95 nM
- IC50 (MKN-45): 2.29 nM
- IC50 (NCI-H510A): 15.5 nM
- IC50 (FTC-133): > 64 nM
- IC50 (KY821): > 64 nM
- IC50 (NCI-H2170): 11.6 nM
